We go through 22 compounds from ChEMBL document CHEMBL4406892 (Bioorg Med Chem Lett, 2019).

Each structure is given as a SMILES string. The source made the active and inactive calls. The rule behind the calls is not given here.

Series [1] has as its target Urokinase-type plasminogen activator (Homo sapiens, UniProt P00749).
Description: Inhibition of human kidney uPA using fluorogenic Z-Pyr-Gly-Arg-MCA as substrate measured after 15 mins by fluorometric analysis
In series [2] the test system is Rattus norvegicus. The series can be described thus: Antikaliuretic activity in Sprague-Dawley rat model of acetazolamide-induced diuresis assessed as decrease in potassium secretion at 1.5 mg/kg, ip pretreated with acetazolamide followed by compound treatment measured after 6 hrs. The format is ADME, organism-based. The settings on record: in vivo.
Series [3] has as its system Rattus norvegicus. The series can be described thus: Diuretic activity in Sprague-Dawley rat model of acetazolamide-induced diuresis assessed as increase in sodium excretion at 1.5 mg/kg, ip pretreated with acetazolamide followed by compound treatment measured after 6 hrs. The class given is ADME, organism-based. The settings on record: in vivo.
Another series has as its target Trypsin (Homo sapiens, UniProt P07477+P07478+P35030). The series can be described thus: Inhibition of trypsin (unknown origin) using chromogenic H-D-Ile-[…]-L-arginine-p-nitroaniline as substrate. The class given is protein assay.
Series [4] relates to Rattus norvegicus. As to the kind of experiment: Diuretic activity in Sprague-Dawley rat model of acetazolamide-induced diuresis assessed as increase in urine volume at 1.5 mg/kg, ip pretreated with acetazolamide followed by compound treatment measured after 6 hrs. The class given is ADME, organism-based. As to conditions: in vivo.
Series [5] deals with Vitamin K-dependent protein C (Homo sapiens, UniProt P04070). The series can be described thus: Inhibition of activated protein C (unknown origin) using chromogenic L-pyroGlu-L-Pro-L-Arg-p-nitroaniline as substrate.
Another series has as its target Coagulation factor XI (Homo sapiens, UniProt P03951). The series can be described thus: Inhibition of factor 11a (unknown origin) using chromogenic L-pyroGlu-L-Pro-L-Arg-p-nitroaniline as substrate.
The next series addresses Prothrombin (Homo sapiens, UniProt P00734). The series can be described thus: Inhibition of thrombin (unknown origin) using chromogenic H-D-Ile-[…]-L-arginine-p-nitroaniline as substrate.
A further series deals with Plasma kallikrein (Homo sapiens, UniProt P03952).
For series [6], the target named is Tissue-type plasminogen activator (Homo sapiens, UniProt P00750).
Description: Inhibition of tissue-type plasminogen activator (unknown origin) using chromogenic H-D-Ile-L-propyl-L-arginine-p-nitroaniline as substrate
Another series addresses Plasminogen (Homo sapiens, UniProt P00747). The series can be described thus: Inhibition of plasmin (unknown origin) using chromogenic H-D-Ile-[…]-L-arginine-p-nitroaniline as substrate.
Another series relates to HT-1080. As to the kind of experiment: Antimetastatic activity against luciferase-tagged human HT1080 cells xenografted in NSG mouse assessed as reduction in lung burden at 7.5 mg/kg/day, ip for 21 days by luciferase assay. The class given is functional, organism-based. In general terms: A xenograft is tissue or cells of one species grown in another, often human tumour cells in immunodeficient mice.

For another series, the target named is Coagulation factor X (Homo sapiens, UniProt P00742). As to the kind of experiment: Inhibition of factor Xa (unknown origin).
Chain of Coagulation factor X (P00742 41-179 limits assumed): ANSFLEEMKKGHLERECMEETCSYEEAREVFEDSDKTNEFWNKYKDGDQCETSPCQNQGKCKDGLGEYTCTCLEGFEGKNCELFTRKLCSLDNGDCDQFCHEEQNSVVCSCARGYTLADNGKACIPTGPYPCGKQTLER
Chain of Coagulation factor X (P00742 235-488 limits assumed): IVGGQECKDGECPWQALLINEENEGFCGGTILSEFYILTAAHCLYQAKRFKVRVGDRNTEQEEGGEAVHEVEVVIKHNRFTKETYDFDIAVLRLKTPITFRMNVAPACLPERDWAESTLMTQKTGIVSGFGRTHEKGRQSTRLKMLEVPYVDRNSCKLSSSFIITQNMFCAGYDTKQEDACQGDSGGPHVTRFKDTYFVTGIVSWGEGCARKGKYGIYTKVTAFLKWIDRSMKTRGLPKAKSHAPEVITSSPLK

Chain of Tissue-type plasminogen activator (P00750 whole entry): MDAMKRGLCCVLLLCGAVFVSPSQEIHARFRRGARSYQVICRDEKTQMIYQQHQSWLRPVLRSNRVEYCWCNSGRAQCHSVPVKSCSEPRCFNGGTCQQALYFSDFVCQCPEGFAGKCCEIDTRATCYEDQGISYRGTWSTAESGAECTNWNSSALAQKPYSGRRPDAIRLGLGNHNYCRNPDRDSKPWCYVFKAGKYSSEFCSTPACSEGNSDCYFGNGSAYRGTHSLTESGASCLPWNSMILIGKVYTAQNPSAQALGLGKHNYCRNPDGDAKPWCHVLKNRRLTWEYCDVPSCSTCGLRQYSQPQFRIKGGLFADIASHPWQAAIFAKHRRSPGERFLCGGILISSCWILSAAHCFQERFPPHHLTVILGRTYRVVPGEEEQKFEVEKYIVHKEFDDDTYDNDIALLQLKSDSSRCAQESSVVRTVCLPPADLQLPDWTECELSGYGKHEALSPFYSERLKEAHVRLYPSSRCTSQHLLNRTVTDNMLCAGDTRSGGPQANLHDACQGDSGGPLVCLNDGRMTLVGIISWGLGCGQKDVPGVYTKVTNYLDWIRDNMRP
Chain of Plasminogen (P00747 97-580 limits assumed): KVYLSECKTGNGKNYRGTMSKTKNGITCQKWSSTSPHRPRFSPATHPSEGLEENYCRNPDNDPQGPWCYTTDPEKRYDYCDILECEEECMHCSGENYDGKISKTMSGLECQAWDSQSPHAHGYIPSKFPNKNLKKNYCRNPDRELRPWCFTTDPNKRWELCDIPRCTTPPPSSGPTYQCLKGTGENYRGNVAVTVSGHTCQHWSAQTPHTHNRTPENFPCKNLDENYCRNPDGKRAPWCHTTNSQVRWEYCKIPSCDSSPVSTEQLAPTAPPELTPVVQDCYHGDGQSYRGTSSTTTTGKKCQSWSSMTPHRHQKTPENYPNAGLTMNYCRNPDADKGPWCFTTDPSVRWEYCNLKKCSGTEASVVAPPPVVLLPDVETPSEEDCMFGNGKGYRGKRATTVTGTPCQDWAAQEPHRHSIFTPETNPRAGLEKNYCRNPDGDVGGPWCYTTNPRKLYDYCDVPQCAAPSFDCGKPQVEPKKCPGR
Chain of Plasminogen (P00747 581-810 limits assumed): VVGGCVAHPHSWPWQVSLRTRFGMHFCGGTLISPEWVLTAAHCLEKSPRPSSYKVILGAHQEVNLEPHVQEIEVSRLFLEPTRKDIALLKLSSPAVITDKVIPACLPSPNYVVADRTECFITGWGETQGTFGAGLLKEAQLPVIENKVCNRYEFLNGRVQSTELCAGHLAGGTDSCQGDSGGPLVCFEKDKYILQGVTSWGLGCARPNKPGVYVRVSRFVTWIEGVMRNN
Chain of Vitamin K-dependent protein C (P04070 43-197 limits assumed): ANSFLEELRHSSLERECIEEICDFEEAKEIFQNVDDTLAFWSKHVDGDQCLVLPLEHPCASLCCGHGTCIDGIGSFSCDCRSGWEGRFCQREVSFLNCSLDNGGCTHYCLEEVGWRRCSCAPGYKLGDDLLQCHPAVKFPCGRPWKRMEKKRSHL
Chain of Vitamin K-dependent protein C (P04070 212-461 limits assumed): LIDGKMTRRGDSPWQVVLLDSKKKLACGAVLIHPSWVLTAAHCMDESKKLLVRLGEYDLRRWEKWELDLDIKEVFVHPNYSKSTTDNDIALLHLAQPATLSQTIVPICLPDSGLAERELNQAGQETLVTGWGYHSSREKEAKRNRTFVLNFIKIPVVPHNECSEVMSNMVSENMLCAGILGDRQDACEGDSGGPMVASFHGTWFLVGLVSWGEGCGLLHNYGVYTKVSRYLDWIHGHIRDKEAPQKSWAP
Chain of Coagulation factor XI (P03951 19-387 limits assumed): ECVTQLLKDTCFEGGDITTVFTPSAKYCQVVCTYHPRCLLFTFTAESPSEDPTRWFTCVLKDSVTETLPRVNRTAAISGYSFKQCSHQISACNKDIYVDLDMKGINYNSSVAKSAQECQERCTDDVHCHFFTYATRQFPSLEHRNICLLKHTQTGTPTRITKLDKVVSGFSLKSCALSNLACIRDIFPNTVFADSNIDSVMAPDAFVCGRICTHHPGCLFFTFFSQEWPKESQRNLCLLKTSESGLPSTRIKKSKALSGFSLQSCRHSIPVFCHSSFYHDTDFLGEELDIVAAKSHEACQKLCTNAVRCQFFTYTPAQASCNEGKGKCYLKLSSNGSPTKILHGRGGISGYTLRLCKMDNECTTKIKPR
Chain of Coagulation factor XI (P03951 388-625 limits assumed): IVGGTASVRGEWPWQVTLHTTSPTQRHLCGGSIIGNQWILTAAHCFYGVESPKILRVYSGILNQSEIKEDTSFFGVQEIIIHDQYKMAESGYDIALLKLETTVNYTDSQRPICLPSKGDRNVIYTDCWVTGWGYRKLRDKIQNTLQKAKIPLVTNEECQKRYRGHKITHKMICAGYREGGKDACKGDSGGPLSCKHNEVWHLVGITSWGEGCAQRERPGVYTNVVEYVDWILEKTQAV
Chain of Plasma kallikrein (P03952 20-390 limits assumed): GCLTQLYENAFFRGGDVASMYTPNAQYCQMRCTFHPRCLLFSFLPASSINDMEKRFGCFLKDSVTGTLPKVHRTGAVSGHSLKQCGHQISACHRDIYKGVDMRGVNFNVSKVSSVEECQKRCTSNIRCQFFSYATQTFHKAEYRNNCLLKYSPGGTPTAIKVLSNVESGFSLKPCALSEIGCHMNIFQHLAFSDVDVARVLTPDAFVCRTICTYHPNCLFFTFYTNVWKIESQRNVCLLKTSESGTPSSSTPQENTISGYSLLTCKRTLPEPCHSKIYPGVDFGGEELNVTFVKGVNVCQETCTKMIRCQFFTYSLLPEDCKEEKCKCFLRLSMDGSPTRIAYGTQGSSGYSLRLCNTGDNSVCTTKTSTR
Chain of Plasma kallikrein (P03952 391-638 limits assumed): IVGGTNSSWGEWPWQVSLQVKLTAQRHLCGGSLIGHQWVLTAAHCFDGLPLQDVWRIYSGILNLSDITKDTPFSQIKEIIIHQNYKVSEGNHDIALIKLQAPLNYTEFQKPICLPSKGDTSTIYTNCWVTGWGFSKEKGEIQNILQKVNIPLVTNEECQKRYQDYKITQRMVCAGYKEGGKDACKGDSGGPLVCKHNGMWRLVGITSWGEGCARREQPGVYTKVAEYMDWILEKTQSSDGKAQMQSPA
Description for Plasma kallikrein: Inhibition of human plasma kallikrein using chromogenic L-pyroGlu-L-Pro-L-Arg-p-nitroaniline as substrate

In turn, `N=C(N)NC(=O)c1nc(-c2ccc3c(c2)CCO3)c(N)nc1N` had a Ki in series [1] of 1.48 µM. Compound `COc1ccc(-c2nc(C(=O)NC(=N)N)c(N)nc2N)c(OC)n1` gave a Ki in [1] of 1.21 µM. On the same count and under the same terms, next, `N=C(N)NC(=O)c1nc(-c2ccco2)c(N)nc1N`: 0.776 µM. As for `COc1ncc(-c2nc(C(=O)NC(=N)N)c(N)nc2N)cn1`, the Activity result with Rattus norvegicus [2] and in the series with Rattus norvegicus [3] was “Non-Toxic” in each case. In addition, in [1], the affinity, expressed as Ki, was 0.204 µM. Turning to `N=C(N)NC(=O)c1nc(-c2ccoc2)c(N)nc1N`, in series [1], the affinity corresponds to a Ki of 0.499 µM. Regarding `CSc1ccc(-c2nc(C(=O)NC(=N)N)c(N)nc2N)cc1`, the Ki in series [1] is 2.41 µM.

In the case of `N=C(N)NC(=O)c1nc(-c2cc3cc(F)ccc3o2)c(N)nc1N`, the affinity in series [1] corresponds to a Ki of 0.587 µM.

`N=C(N)NC(=O)c1nc(-c2ccc(C(F)(F)F)cc2)c(N)nc1N` registered a Ki in series [1] of 3.14 µM. Regarding `N=C(N)NC(=O)c1nc(-c2ccccc2)c(N)nc1N`, the inhibition constant (Ki) in series [1] turned out to be 2.5 µM. Same read-out and setting: next, `Cc1ccc2oc(-c3nc(C(=O)NC(=N)N)c(N)nc3N)cc2c1`: 0.642 µM. Turning to `N=C(N)NC(=O)c1nc(-c2cc3ccccc3o2)c(N)nc1N`, the Activity entry in the series on Rattus norvegicus [2], with Rattus norvegicus [4] and in the series on Rattus norvegicus [3] was “Non-Toxic” in each case. On Trypsin, the 50% inhibitory concentration (IC50) was more than 50 µM. For `COc1ncc(-c2nc(C(=O)NC(=N)N)c(N)nc2N)c(OC)n1`, affinity in series [1] was put at a Ki of 1.63 µM. Same read-out and setting: the same measure for `COc1ccc2oc(-c3nc(C(=O)NC(=N)N)c(N)nc3N)cc2c1`: 0.287 µM; for `N#Cc1ccc2oc(-c3nc(C(=O)NC(=N)N)c(N)nc3N)cc2c1`: 0.904 µM. The same measure, in the same setting: next, `N=C(N)NC(=O)c1nc(-c2ccc3occc3c2)c(N)nc1N`: 0.35 µM; `N=C(N)NC(=O)c1nc(-c2cc3cc(Cl)ccc3o2)c(N)nc1N`: 0.578 µM; `N=C(N)NC(=O)c1nc(-c2cc3ccccc3s2)c(N)nc1N`: 1.41 µM. `N=C(N)NC(=O)c1nc(-c2cc3cc(Br)ccc3o2)c(N)nc1N`: the Ki in series [1] came out at 3.65 µM. As for `N=C(N)NC(=O)c1nc(Cl)c(N)nc1N` [AMILORIDE], the IC50 in [5] is more than 50 µM; on Trypsin it was more than 50 µM; at Coagulation factor XI, more than 50 µM; against Prothrombin it was more than 20 µM; against Plasma kallikrein, more than 50 µM; in series [6], more than 20 µM. The IC50 is more than 20 µM against Plasminogen and more than 50 µM against Coagulation factor X. Further, the inhibition entry in the series with HT-1080 was “inactive”. `Cn1cc(-c2nc(C(=O)NC(=N)N)c(N)nc2N)cn1`: the Ki in series [1] was found to be 0.482 µM. Consider `COc1ccc2cc(-c3nc(C(=O)NC(=N)N)c(N)nc3N)oc2c1`, for which the affinity in [1] corresponds to a Ki of 0.439 µM.

Compound `N=C(N)NC(=O)c1nc(-c2cccs2)c(N)nc1N` showed a Ki in [1] of 1.26 µM.

A word on the Ki: it is a measure of affinity in units of concentration, obtained from inhibition or displacement. A higher Ki goes with lower affinity. Broadly, the IC50 is the midpoint of a concentration-inhibition curve. Lower therefore signals greater potency.
